Source: patent US6620961B1, “Biarylalkylenecarbamic acid derivatives and bacteriocides for agricultural and horticultural use” (Kumiai Chemical Industry Co., Ltd., priority 1997, dated 2003)

What was measured:
[1] = tested on: Venturia inaequalis; test: Test for Preventive Effect on Apple Scab; type: in vivo; parameters: key: A: No diseased area; B: Diseased area of less than 25%; C: Diseased area of at least 25% but less than 50%; Diseased area of at least 50%; details: 14 days after inoculation; for Evaluation (diseased areas of the upper two of the inoculated leaves): apple seedlings, wettable powder at 500 ppm active ingredient, preventive; for Evaluation (diseased area of the upper two inoculated leaves): apple seedlings (Kogyoku), 500 ppm active ingredient, 20 ml per pot
Experimental: [table] Test for Preventive Effect on Apple Scab 5 apple seeds (variety: Kogyoku) were sown in each 9 cm×9 cm polyvinyl chloride pot and grown in a greenhouse for 20 days. […] Then, the seedlings were inoculated with Venturia inaequalis spores in suspension by spraying and immediately placed in a moist chamber at 22° C. for 48 hours. Thereafter, the seedlings were placed in a greenhouse for development of the disease. 14 days after the inoculation, the diseased areas of the upper two of the inoculated leaves were observed and evaluated on the basis of the standards shown in Table 59.

[2] = tested on: Erysiphe graminis; test: Test for Preventive Effect on Wheat Powdery Mildew; type: in vivo; parameters: key: A: No diseased area; B: Diseased area of less than 25%; C: Diseased area of at least 25% but less than 50%; Diseased area of at least 50%; details: wheat seedlings (Norin-61-go), 500 ppm active ingredient, 10 ml per pot, 10 days after inoculation
Experimental: [table] Test for Preventive Effect on Wheat Powdery Mildew 9 wheat seeds (variety: […] Then, the seedlings were inoculated with […] graminis spores in suspension and placed in a greenhouse at 25 to 30° C. 10 days after the inoculation, the total diseases area of the first leaves in each pot was observed and evaluated on the basis of the standards shown in Table 59. The results are shown in Tables 67 to 71.

[3] = tested on: Pseudoperonospora cubensis; test: Test for Preventive Effect on Cucumber Downy Mildew; type: in vivo; parameters: key: A: No diseased area; B: Diseased area of less than 25%; C: Diseased area of at least 25% but less than 50%; Diseased area of at least 50%; details: cucumber seedlings, wettable powder at 500 ppm active ingredient, 7 days after inoculation
Experimental: Test for Preventive Effect on Cucumber Downy Mildew 9 cucumber seeds (variety: Sagami-hanpaku) were sown in each 9 cmx9 cm polyvinyl chloride pot and grown in a greenhouse for 7 days. […] Then, the seedlings were inoculated with Pseudoperonospora cubensis zoosporangia in suspension by spraying and immediately placed in a moist chamber at 22° C. for 24 hours. Thereafter, the seedlings were placed in a greenhouse. 7 days after the inoculation, the total diseased area in each pot was observed and evaluated on the basis of the standards shown in Table 59. [table]

[4] = tested on: Botrytis cinerea; test: Test for Preventive Effect on Cucumber Gray Mold; type: in vivo; parameters: key: A: No diseased area; B: Diseased area of less than 25%; C: Diseased area of at least 25% but less than 50%; Diseased area of at least 50%; details: cotyledonary cucumber seedlings (Sagami-hanziro), 500 ppm active ingredient, 10 ml per pot, 3 days after inoculation
Experimental: [table] Test for Preventive Effect on Cucumber Gray Mold 9 cucumber seeds (variety: Sagami-hanziro) were sown in each 9 cm−9 cm polyvinyl chloride pot and grown in a greenhouse for 7 days. […] Then, the seedlings were inoculated with milled Botrytis cinerea hyphae in solution by spraying and immediately placed in a moist chamber at 22° C. 3 days after the inoculation, the total diseased area in each pot was observed and evaluated on the basis of the standards shown in Table 59.

| melting point [°C] | Structure (SMILES) | Evaluation (diseased areas of the upper two of the inoculated leaves) [1] | Evaluation (total diseased area of the first leaves in each pot) [2] | Evaluation (total diseased area in each pot) [3] | Evaluation (total diseased area in each pot) [4] | Evaluation (diseased area of the upper two inoculated leaves) [1] |
| --- | --- | --- | --- | --- | --- | --- |
| 49 to 52 | COC(=O)NCc1cccc(-c2ccccc2)c1 [1-1, Methyl N-(3-phenylbenzyl)carbamate] | A | A |  |  |  |
|  | COC(=O)NCc1cccc(-c2cccc(C)c2)c1 [1-11] | A | A | A | B (Diseased area of less than 25%) |  |
|  | COC(=O)NCc1cccc(-c2ccc(C)cc2)c1 [1-12] | A | A | B (Diseased area of less than 25%) | A |  |
| 61 to 64 | CC(C)OC(=O)NCc1cccc(-c2ccccc2)c1 [1-150, Isopropyl N-(3-phenylbenzyl)carbamate] |  | B (Diseased area of less than 25%) |  |  |  |
| 91 to 94 | COC(=O)NCc1cccc(-c2ccccc2)c1C [2-1, Methyl N-(2-methyl-3-phenylbenzyl)carbamate] |  | A |  |  |  |
|  | CCc1cccc(-c2ccc(F)c(CNC(=O)OC)c2)c1 [2-111] | A | B (Diseased area of less than 25%) | A | B (Diseased area of less than 25%) |  |
|  | COC(=O)NCc1cc(-c2cccc(Cl)c2)ccc1OC [2-331] |  | B (Diseased area of less than 25%) | A | A | A |
|  | COC(=O)NCc1cc(-c2ccc(C)cc2)ccc1OC [2-334] |  | B (Diseased area of less than 25%) | B (Diseased area of less than 25%) | A | A |
|  | COC(=O)NCc1cc(-c2cccc(C(F)(F)F)c2)ccc1OC [2-343] |  | B (Diseased area of less than 25%) | A | B (Diseased area of less than 25%) | A |
|  | COC(=O)NCc1cc(-c2ccc(C)c(C)c2)ccc1OC [2-346] |  | A | B (Diseased area of less than 25%) | B (Diseased area of less than 25%) | A |
|  | COC(=O)NCc1cc(-c2cccc(C(C)=O)c2)ccc1Cl [2-450] |  | A | A | A | A |
|  | COC(=O)NCc1cc(-c2ccc(OC)c(OC)c2)ccc1Cl [2-455] |  | B (Diseased area of less than 25%) |  | B (Diseased area of less than 25%) | A |
|  | COC(=O)NCc1cc(-c2ccc(C)cc2)ccc1I [2-551] |  | B (Diseased area of less than 25%) |  | B (Diseased area of less than 25%) | A |
| 117 to 119 | COC(=O)NC(C)c1cccc(-c2ccc(OC)cc2)c1 (centres unmarked) [3-15, Methyl N-{1-[3-(4-methoxyphenyl)phenyl]ethyl}carbamate] |  |  | A |  |  |
